This is an account of results in patent publication US4870074A, “Substituted benzamide derivatives, for enhancing gastrointestinal motility” (priority 1986, dated 1989).

For one data set, the system named is gastric emptying. Put plainly: Test 1: gastric emptying enhancing activity (phenol red test meal). It is filed as in vivo, Male Wistar rats. The conditions noted are these: po, 0.25 h, 60 min before test meal, rat, read-out: Gastric emptying enhancing activity, Increase (emptying rate vs control); for change in vivo at 2 mg/kg: 2.0 mg/kg p.o. As to the method: The test was carried out according to the method of Scarpignato et al. [cf. Arch. int. Pharmacodyn., 246, 286-294 (1980)].
Male Wistar rats, weighing 130-150 g, were fasted for 18 hours before experimentation, and 1.5 ml of a test meal (phenol red 0.05% in a 1.5% aqueous methylcellulose solution) was given by gastric tube. Fifteen minutes after administration of the meal the stomach was removed and the amount of phenol red remaining in the stomach was measured.
The test compounds, dissolved or suspended in a 0.5% tragacanth solution, were orally administered 60 minutes before administration of the test meal. The rate of gastric emptying was calculated according to the amount of phenol red remaining in the stomach, and the activity of the test compounds was expressed in terms of increase in the emptying rate from the control. The number of animals used was 5 for the control and each dose of metoclopramide hydrochloride monohydrate and 4 for each dose of the other test compounds.

The subject of the next data set is central nervous system. Put plainly: Test 3: effect on the central nervous system (CNS effect), Irwin observation. The conditions noted are these: 100 mg/kg, p.o., mouse, 2 hours observation.

Description for central nervous system: Male ddY mice, weighing 18-25 g, were used in groups of 3 animals each. […] Psychopharmacologia, 13, 222-227 (1968)], comprehensive observation of behavioral and physiologic states were carried out for 2 hours after the oral treatment with 100 mg/kg of the test compound, dissolved or suspended in a 0.5% tragacanth solution. Liability of the test compounds to the central nervous system effect was expressed with the following marks, according to the total sum of potencies for the individually analyzed effects, such as catalepsy, ptosis, hypolocomotin, etc.

With `CCCCCCCOc1cc(N)c(Cl)cc1C(=O)NCC1CN(Cc2ccccc2)CCO1` (stereo not shown) [Example 97], the change in vivo at 2 mg/kg in the data set with gastric emptying was 43.8%. Besides, the CNS effect entry in the data set on central nervous system is reported as “-”.
`Nc1cc(OC2CCCC2)c(C(=O)NCC2CN(Cc3ccccc3)CCO2)cc1Cl` (stereo not shown) [Example 101]: the change in vivo at 2 mg/kg with gastric emptying was found to be 46.4%. Besides, in the data set on central nervous system, the CNS effect entry is on record as “-”.
In the same order, the values of `CC(=O)COc1cc(N)c(Cl)cc1C(=O)NCC1CN(Cc2ccccc2)CCO1` (stereo not shown) [Example 104] are 43.8% and “-”.
In the case of `CC(O)COc1cc(N)c(Cl)cc1C(=O)NCC1CN(Cc2ccccc2)CCO1` (stereo not shown) [Example 105], in the data set on gastric emptying, the change in vivo at 2 mg/kg turned out to be 52%. Further, the CNS effect entry in the data set with central nervous system is “-”.
As to `CC(C)=CCOc1cc(N)c(Cl)cc1C(=O)NCC1CN(Cc2ccccc2)CCO1` (stereo not shown) [Example 116, 4-amino-N-[(4-benzyl-2-morpholinyl)methyl]-5-chloro-2-(3-methyl-2-butenyloxy)benzamide], the change in vivo at 0.5 mg/kg in the data set on gastric emptying (0.5 mg/kg p.o.) was determined as 41.4%. In the data set with gastric emptying, the change in vivo at 2 mg/kg worked out at 52.4%. For the same compound, the CNS effect entry in the data set with central nervous system was “-”.
Consider `C=CCCOc1cc(N)c(Cl)cc1C(=O)NCC1CN(Cc2ccccc2)CCO1` (stereo not shown) [Example 119], for which, in the data set with gastric emptying, the change in vivo at 2 mg/kg worked out at 48.4%. Further, the CNS effect entry in the data set on central nervous system is recorded as “-”.
